# According to patent US20240408096A1, “DOSING REGIMENS FOR ORAL ALK2 KINASE INHIBITORS” (BioCryst Pharmaceuticals, Inc., priority 2020, published 2024):
# “Also recorded” adds a separate entry of the source.
# Tests used:
# [1] = safety pharmacology studies (CNS, respiratory, cardiovascular); format: in vivo; conditions: HEDs exceeding likely human daily clinical dose ranges (5 to 200 mg)
# [2] = plasma protein binding, human; format: in vitro ADME; conditions: in vitro
# [3] = metabolism by liver S9 fraction; format: in vitro ADME; conditions: animal and human liver S9 fraction
# [4] = system: CYP3A; assay: CYP inhibition in vitro; format: in vitro ADME
# [5] = target: CYP2C9 (Homo sapiens, UniProt P11712); assay: CYP inhibition in vitro; format: in vitro ADME
# CYP2C9, sequence (P11712 whole entry): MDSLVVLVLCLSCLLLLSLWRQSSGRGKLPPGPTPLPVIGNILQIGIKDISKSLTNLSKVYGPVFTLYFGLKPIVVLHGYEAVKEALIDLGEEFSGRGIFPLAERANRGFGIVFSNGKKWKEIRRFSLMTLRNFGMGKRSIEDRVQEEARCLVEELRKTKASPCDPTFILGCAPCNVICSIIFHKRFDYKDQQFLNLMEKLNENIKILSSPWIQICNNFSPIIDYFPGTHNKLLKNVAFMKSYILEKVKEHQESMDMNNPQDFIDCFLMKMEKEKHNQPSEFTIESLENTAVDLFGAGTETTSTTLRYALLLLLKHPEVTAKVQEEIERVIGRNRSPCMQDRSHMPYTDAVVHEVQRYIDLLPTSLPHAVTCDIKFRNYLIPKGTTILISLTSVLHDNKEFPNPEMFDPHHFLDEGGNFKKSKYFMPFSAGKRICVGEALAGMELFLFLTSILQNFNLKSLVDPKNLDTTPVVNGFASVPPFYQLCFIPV
# [6] = Phase 1 Part 1 (SAD) plasma PK incl. food effect; format: in vivo, human; conditions: for AUC0-24, geometric least-squares mean / AUC0-inf, geometric least-squares mean / AUC0-last, geometric least-squares mean / Cmax, geometric least-squares mean: 15 mg single dose; for AUC0-24 / AUC0-inf / AUC0-last / Cmax / Tmax / t1/2: Part 1 SAD; for AUC0-24 / AUC0-inf / AUC0-last / Cmax: geometric mean (CV%); for Tmax / t1/2: median
# Experimental: (§1) Four sequential SAD cohorts were dosed.
# Escalation to the next higher dose level in Part 1 occurred only after satisfactory review of clinical safety and pharmacokinetic data. […] Subjects received the same study drug and dose (Compound A or placebo) in both dosing periods.
# For each cohort of Part 1, the daily dose of study drug was administered as a single dose (1 time daily or QD). In Part 1 of the study, following a screening period to determine eligibility, subjects in each cohort entered the Phase 1 clinical research unit (CRU) on the afternoon of Day −1. Study eligibility was re-confirmed upon admission to the CRU, and subjects remained in the CRU overnight prior to dosing on Day 1. Following Day 1, subjects remained in the CRU for an additional 72 hours post-dose (i.e., discharge on Day 4) to enable collection of plasma and urine for PK samples and other study assessments. Subjects were discharged from the CRU following plasma PK sample collection on Day 4 and returned on Day 16 (+2 days) for a final follow-up visit.
# Serial venous blood samples were withdrawn via an indwelling cannula or by venipuncture according to the schedule in Tables 4 and 5 for Parts 1 and 2, respectively. Samples were collected into 4 mL lithium heparin tubes. The acceptable deviations from the nominal blood sampling times in Part 1 and Part 2 are as follows: the pre-dose blood sample will be taken ≤1 hour before dosing; 0 to 1 hour post-dose samples will be taken within +2 minutes of the nominal post-dose sampling time; >1 to 12 hours post-dose samples will be taken within +10 minutes of the nominal post-dose sampling time; and >12 hours post-dose samples will be taken within +30 minutes of the nominal post-dose sampling time if subjects are resident in the clinic. […]
# In all derivations of PK parameters, 0 will be substituted for concentrations below the quantification limit (BQL) of the assay. Samples that are BQL but are between 2 samples with detectable concentrations will be excluded from PK analysis.
# Dose proportionality was evaluated over all fasted doses within a study part based upon AUC0-inf (Part 1), AUCtau (Part 2), AUC0-t, and Cmax using the power model. The analysis was performed for Day 1 (Parts 1 and 2) and Day 7 (Part 2).
# Dose proportionality for PK parameters was assessed by restricted maximum likelihood using SAS PROC MIXED (SAS STAT software, Cary N.C.). The mean slope was estimated from the power model and the corresponding 90% confidence interval (CI) calculated. Dose proportionality was also examined using an analysis of variance (ANOVA) method, where PK parameters for each dose were compared with a reference dose on a pair-wise basis. The ratio of geometric least squares (GLS) means and the corresponding 90% CI was estimated for each PK parameter of interest.
# Mixed-effects models were constructed with treatment fitted as a fixed effect and subject fitted as a random effect to provide point estimates for the ratios of PK parameters under fed relative to fasted conditions and their associated 90% CI.
# [7] = Phase 1 Part 1 (SAD) urinary PK; format: in vivo, human; conditions: for CLR,0-6 / CLR,6-12 / CLR,12-24 / Cum % excreted0-72 / CumAe0-72 / CLR,24-48: Part 1 SAD, geometric mean (CV%); for CumAe0-72: urine 0 to 72 hours
# Experimental: as §1
# Urine samples were collected according to the schedule in Tables 4 and 5 for Parts 1 and 2, respectively. The pre-dose sample on Day 1 was collected any time in the 2 hours prior to dosing. A 30-minute window was allowed around collection intervals.
# [8] = Part 1 cohort 4, 15 mg single dose
smiles,measurement,setting,value
COc1cc(-n2cnc(Nc3nc(N4CCC[C@H]4C(N)=O)nc4sccc34)c2)cc(OC)c1OC.O=C(O)CC(O)(CC(=O)O)C(=O)O [Compound A],"adverse central nervous system, respiratory, or cardiovascular issues",[1],"no adverse central nervous system, respiratory, or cardiovascular issues"
same,plasma protein binding,[2],≥ 99.9%
same,metabolism / human-specific metabolites,[3],metabolized by animal and human liver S9 fraction with no apparent human-specific metabolites
same,CYP3A inhibition,[4],not an inhibitor
same,CYP2C9 inhibition,[5],is an inhibitor
same,"AUC0-24, geometric least-squares mean",[6]; fasted,"1975,63 ng · h/mL"
same,"AUC0-inf, geometric least-squares mean",[6]; fasted,2.07534 µg·h/mL
same,"AUC0-last, geometric least-squares mean",[6]; fasted,2.01955 µg·h/mL
same,"Cmax, geometric least-squares mean",[6]; fasted,0.2728 µg/mL
same,"AUC0-24, geometric least-squares mean",[6]; fed,1742.05 ng·h/mL
same,"AUC0-inf, geometric least-squares mean",[6]; fed,2.08705 µg·h/mL
same,"AUC0-last, geometric least-squares mean",[6]; fed,2.01524 µg·h/mL
same,"Cmax, geometric least-squares mean",[6]; fed,0.1995 µg/mL
same,detectability in plasma,"[6]; Part 1, all cohorts except cohort 1 (5 mg dose)",remained detectable over the entire 72-hour data collection period
same,median time to maximum concentration (Tmax),"[6]; Part 1, all fasted cohorts",approximately 2 hours
same,dose proportionality of plasma exposure,"[6]; Part 1, single oral doses 5 to 25 mg, healthy subjects",exhibits dose proportionality; also recorded: approximately linear and dose proportional
same,AUC0-24,"[6]; 5 mg single oral dose, fasted",686.9 (30.7) ng · h/mL
same,AUC0-inf,"[6]; 5 mg single oral dose, fasted",755.7 (29.9) ng · h/mL
same,AUC0-last,"[6]; 5 mg single oral dose, fasted",717.0 (31.3) ng · h/mL
same,Cmax,"[6]; 5 mg single oral dose, fasted",94.24 (45.2) ng/mL
same,Tmax,"[6]; 5 mg single oral dose, fasted",2.011 h
same,t1/2,"[6]; 5 mg single oral dose, fasted",6.833 h
same,AUC0-24,"[6]; 10 mg single oral dose, fasted",1545 (18.9) ng · h/mL
same,AUC0-inf,"[6]; 10 mg single oral dose, fasted",1662 (17.3) ng · h/mL
same,AUC0-last,"[6]; 10 mg single oral dose, fasted",1579 (18.8) ng · h/mL
same,Cmax,"[6]; 10 mg single oral dose, fasted",234.3 (26.1) ng/mL
same,Tmax,"[6]; 10 mg single oral dose, fasted",2.013 h
same,t1/2,"[6]; 10 mg single oral dose, fasted",5.753 h
same,AUC0-24,"[6]; 15 mg single oral dose, fasted",1976 (16.6) ng · h/mL
same,AUC0-inf,"[6]; 15 mg single oral dose, fasted",2214 (24.3) ng · h/mL
same,AUC0-last,"[6]; 15 mg single oral dose, fasted",2178 (24.8) ng · h/mL
same,Cmax,"[6]; 15 mg single oral dose, fasted",272.8 (42.5) ng/mL
same,Tmax,"[6]; 15 mg single oral dose, fasted",2.009 h
same,t1/2,"[6]; 15 mg single oral dose, fasted",7.639 h
same,AUC0-24,"[6]; 15 mg single oral dose, fed",1742 (17.6) ng · h/mL
same,AUC0-inf,"[6]; 15 mg single oral dose, fed",1978 (21.4) ng · h/mL
same,AUC0-last,"[6]; 15 mg single oral dose, fed",1898 (24.3) ng · h/mL
same,Cmax,"[6]; 15 mg single oral dose, fed",199.5 (41.2) ng/mL
same,Tmax,"[6]; 15 mg single oral dose, fed",4.023 h
same,t1/2,"[6]; 15 mg single oral dose, fed",6.688 h
same,AUC0-24,"[6]; 25 mg single oral dose, fasted",3188 (14.2) ng · h/mL
same,AUC0-inf,"[6]; 25 mg single oral dose, fasted",3517 (17.0) ng · h/mL
same,AUC0-last,"[6]; 25 mg single oral dose, fasted",3475 (17.8) ng · h/mL
same,Cmax,"[6]; 25 mg single oral dose, fasted",474.1 (37.1) ng/mL
same,Tmax,"[6]; 25 mg single oral dose, fasted",2.071 h
same,t1/2,"[6]; 25 mg single oral dose, fasted",7.502 h
same,GLSM AUC0-last and GLSM AUC0-inf fasted vs. fed,[6]; [8],approximately equivalent
same,"Tmax, median of paired differences (95% CI) fed vs. fasted",[6]; [8],"2.00 (0.99, 10.00)"
same,decrease of GLSM AUC0-24 after high-fat meal vs fasted,[6]; [8],12%
same,decrease of GLSM Cmax after high-fat meal vs fasted,[6]; [8],27%
same,dose proportionality of single dose Cmax,[6]; Part 1 single ascending oral dose cohorts (FIG. 2),approximately linear and dose-proportional
same,dose proportionality of single dose AUC0-24,[6]; Part 1 single ascending oral dose cohorts (FIG. 3),approximately linear and dose-proportional
same,cumulative amount of parent compound excreted in the urine,"[7]; Part 1, single doses 5 to 25 mg, all cohorts",less than 0.3 % of the administered dose
same,"CLR,0-6",[7]; 5 mg,23.63 (28.3) mL/h
same,"CLR,6-12",[7]; 5 mg,14.61 (92.8) mL/h
same,"CLR,12-24",[7]; 5 mg,"8.576 (263,3) mL/h"
same,Cum % excreted0-72,[7]; 5 mg,0.2668 (43.6) %
same,CumAe0-72,[7]; 5 mg,"13,340 (43.6) ng"
same,"CLR,0-6",[7]; 10 mg,9.499 (79.6) mL/h
same,"CLR,6-12",[7]; 10 mg,6.137 (93.2) mL/h
same,"CLR,12-24",[7]; 10 mg,"4.759 (56,5) mL/h"
same,Cum % excreted0-72,[7]; 10 mg,0.1206 (84.0) %
same,CumAe0-72,[7]; 10 mg,"12,060 (84.0) ng"
same,"CLR,0-6",[7]; 15 mg fasted,12.84 (56.2) mL/h
same,"CLR,6-12",[7]; 15 mg fasted,6.793 (98.8) mL/h
same,"CLR,12-24",[7]; 15 mg fasted,8.008 (114.1) mL/h
same,"CLR,24-48",[7]; 15 mg fasted,7.674 (80.2) mL/h
same,Cum % excreted0-72,[7]; 15 mg fasted,0.1409 (79.5) %
same,CumAe0-72,[7]; 15 mg fasted,"21,130 (79.5) ng"
same,"CLR,0-6",[7]; 25 mg,15.98 (99.4) mL/h
same,"CLR,6-12",[7]; 25 mg,10.56 (138.2) mL/h
same,"CLR,12-24",[7]; 25 mg,9.785 (145.0) mL/h
same,"CLR,24-48",[7]; 25 mg,10.44 (87.9) mL/h
same,Cum % excreted0-72,[7]; 25 mg,0.1928 (87.0) %
same,CumAe0-72,[7]; 25 mg,"48,210 (87.0) ng"
